These results are taken from patent publication EP1754489A1, “A method of treating vitiligo using synergistic formation” (Ramaiah, Abburi, Prof., priority 2005, dated 2007).

The test system of one assay is fast spreading vitiligo. Put plainly: Clinical trial: arrest of disease activity with oral minipulse (OMP) of beta methasone with or without local active peptide. Type of assay: in vivo, human volunteers. An excerpt:
(§1) That this happens was shown in a clinical trial on human volunteers. The above twin objectives were accomplished. Fig.2a describes two vitiligo patches at the start of treatment of oral steroids, while 2b describes the same patches at the end of 3 months of treatment with oral steroids while at the same time bFGF peptide(s) lotion was applied locally once a day on the lower vitiligo patch for the duration of intake of oral steroids. […] The arrest of the fast spread of the disease was accomplished to the same extent of 84% at the end of 6 months of treatment with oral steroids and the result was not altered by the local application of bFGF peptide(s) lotion (See table 3 for more details).

For assay [1], the system named is vitiligo patches of volunteers. Kind of assay: Clinical trial: repigmentation with oral minipulse of beta methasone with or without local active peptide. Type of assay: in vivo, human volunteers.
Source text: as §1
At the end of 3 months of combinatorial treatment with steroids and local application of bFGF lotion more than 3 fold more patients got pigmented to a marked extent than with steroid alone (See Table 4 for more details). The percentage of volunteers who had moderate and marked rate of repigmentation with combinatorial therapy at the end of three months of treatment is twice than the steroid therapy alone.

Each structure is given as a SMILES string.

Consider `C[C@H]1C[C@H]2[C@@H]3CCC4=CC(=O)C=C[C@]4(C)[C@@]3(F)[C@@H](O)C[C@]2(C)[C@@]1(O)C(=O)CO` [OMP Alone, beta methasone], for which, in the assay on fast spreading vitiligo (At 3 months), the “No. of patients where the disease was arrested with time” value was found to be 12 and the “Patients where the disease was arrested, percent” value is 75%. Further, in the assay on fast spreading vitiligo (At 6 months), the “No. of patients where the disease was arrested with time” value was determined as 14 and the “Patients where the disease was arrested, percent” value turned out to be 87.5%. Also, the “Patients where the disease was arrested, percent” value with fast spreading vitiligo (At 6 months, listed as oral steroids) was 84%. In assay [1] (At 3 months), the “Repigmentation Marked, number of volunteers” value turned out to be 2; the “Repigmentation Minimal, number of volunteers” value is 11; the “Repigmentation Moderate, number of volunteers” value turned out to be 3. Further, in assay [1] (At 6 months), the “Repigmentation Marked, number of volunteers” value was found to be 4; the “Repigmentation Minimal, number of volunteers” value is recorded as 8; the “Repigmentation Moderate, number of volunteers” value amounted to 4.
